Assay results reported in ChEMBL document CHEMBL1201862, “PubChem BioAssay data set” (2004).
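Results reflect a 48-hour exposure of cells in 96-well plates to compound at five concentrations. GI50: concentration for 50% inhibition of growth.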 Activity calls are given as the source filed them. No stated cut-off is given here; in the data, active = GI50 up to about 1.1 µM and inactive = higher.

What was measured:
Experiment in all cases: NCI tumour cell line growth inhibition, 48 h
786-0 = tested on: 786-0
A498 = tested on: A498
A549 = tested on: A549
ACHN = tested on: ACHN
BT-549 = tested on: BT-549
CAKI-1 = tested on: CAKI-1
CCRF-CEM = tested on: CCRF-CEM
COLO 205 = tested on: COLO 205
DU-145 = tested on: DU-145
EKVX = tested on: EKVX
HCT-116 = tested on: HCT-116
HCT-15 = tested on: HCT-15
HL-60 = tested on: HL-60
HOP-62 = tested on: HOP-62
HOP-92 = tested on: HOP-92
HT-29 = tested on: HT-29
Hs-578T = tested on: Hs-578T
IGROV-1 = tested on: IGROV-1
K562 = tested on: K562
KM12 = tested on: KM12
LOX IMVI = tested on: LOX IMVI
M14 = tested on: M14
MCF7 = tested on: MCF7
MDA-MB-231 = tested on: MDA-MB-231
MDA-MB-435 = tested on: MDA-MB-435
MDA-N = tested on: MDA-N
MOLT-4 = tested on: MOLT-4
Malme-3M = tested on: Malme-3M
NCI-H226 = tested on: NCI-H226
NCI-H23 = tested on: NCI-H23
NCI-H460 = tested on: NCI-H460
NCI-H522 = tested on: NCI-H522
NCI/ADR-RES = tested on: NCI/ADR-RES
OVCAR-3 = tested on: OVCAR-3
OVCAR-4 = tested on: OVCAR-4
OVCAR-5 = tested on: OVCAR-5
OVCAR-8 = tested on: OVCAR-8
PC-3 = tested on: PC-3
RPMI-8226 = tested on: RPMI-8226
RXF 393 = tested on: RXF 393
SF-268 = tested on: SF-268
SF-295 = tested on: SF-295
SF-539 = tested on: SF-539
SK-MEL-28 = tested on: SK-MEL-28
SK-MEL-2 = tested on: SK-MEL-2
SK-MEL-5 = tested on: SK-MEL-5
SK-OV-3 = tested on: SK-OV-3
SN12C = tested on: SN12C
SNB-19 = tested on: SNB-19
SNB-75 = tested on: SNB-75
SR = tested on: SR
SW-620 = tested on: SW-620
T47D = tested on: T47D
TK-10 = tested on: TK-10
U-251 = tested on: U-251
UACC-257 = tested on: UACC-257
UACC-62 = tested on: UACC-62
UO-31 = tested on: UO-31

Cn1c(=O)c2c([nH]/c(=N/N=C/c3ccccc3C(=O)O)n2C)n(C)c1=O
GI50 (786-0): > 100 µM (inactive)
GI50 (A498): > 100 µM (inactive)
GI50 (A549): > 100 µM (inactive)
GI50 (ACHN): > 100 µM (inactive)
GI50 (BT-549): > 100 µM (inactive)
GI50 (CAKI-1): > 100 µM (inactive)
GI50 (CCRF-CEM): > 100 µM (inactive)
GI50 (COLO 205): > 100 µM (inactive)
GI50 (DU-145): > 100 µM (inactive)
GI50 (EKVX): > 100 µM (inactive)
GI50 (HCT-116): > 100 µM (inactive)
GI50 (HCT-15): > 100 µM
GI50 (HL-60): > 100 µM (inactive)
GI50 (HOP-62): > 100 µM (inactive)
GI50 (HOP-92): > 100 µM (inactive)
GI50 (HT-29): > 100 µM (inactive)
GI50 (Hs-578T): > 100 µM (inactive)
GI50 (IGROV-1): > 100 µM (inactive)
GI50 (K562): > 100 µM (inactive)
GI50 (KM12): > 100 µM (inactive)
GI50 (LOX IMVI): > 100 µM (inactive)
GI50 (M14): > 100 µM (inactive)
GI50 (MCF7): > 100 µM (inactive)
GI50 (MDA-MB-231): > 100 µM (inactive)
GI50 (MDA-MB-435): > 100 µM (inactive)
GI50 (MDA-N): > 100 µM (inactive)
GI50 (MOLT-4): > 100 µM (inactive)
GI50 (Malme-3M): > 100 µM (inactive)
GI50 (NCI-H226): > 100 µM (inactive)
GI50 (NCI-H23): > 100 µM (inactive)
GI50 (NCI-H460): > 100 µM (inactive)
GI50 (NCI-H522): > 100 µM (inactive)
GI50 (NCI/ADR-RES): > 100 µM (inactive)
GI50 (OVCAR-3): > 100 µM (inactive)
GI50 (OVCAR-4): > 100 µM (inactive)
GI50 (OVCAR-5): > 100 µM (inactive)
GI50 (OVCAR-8): > 100 µM (inactive)
GI50 (PC-3): > 100 µM (inactive)
GI50 (RPMI-8226): > 100 µM (inactive)
GI50 (RXF 393): > 100 µM (inactive)
GI50 (SF-268): > 100 µM (inactive)
GI50 (SF-295): > 100 µM (inactive)
GI50 (SF-539): > 100 µM (inactive)
GI50 (SK-MEL-28): > 100 µM (inactive)
GI50 (SK-MEL-2): > 100 µM (inactive)
GI50 (SK-MEL-5): > 100 µM (inactive)
GI50 (SK-OV-3): > 100 µM (inactive)
GI50 (SN12C): > 100 µM (inactive)
GI50 (SNB-19): > 100 µM (inactive)
GI50 (SNB-75): > 100 µM (inactive)
GI50 (SR): > 100 µM (inactive)
GI50 (SW-620): > 100 µM (inactive)
GI50 (T47D): > 100 µM (inactive)
GI50 (TK-10): > 100 µM (inactive)
GI50 (U-251): > 100 µM (inactive)
GI50 (UACC-257): > 100 µM (inactive)
GI50 (UACC-62): > 100 µM (inactive)
GI50 (UO-31): > 100 µM (inactive)

Cc1ncc([N+](=O)[O-])n1CCNC(=O)CCC(=O)NCCCn1ccnc1[N+](=O)[O-]
GI50 (786-0): > 100 µM (inactive)
GI50 (A498): > 100 µM (inactive)
GI50 (A549): > 100 µM (inactive)
GI50 (ACHN): > 100 µM (inactive)
GI50 (BT-549): > 100 µM (inactive)
GI50 (CAKI-1): > 100 µM (inactive)
GI50 (CCRF-CEM): > 100 µM (inactive)
GI50 (COLO 205): > 100 µM (inactive)
GI50 (DU-145): > 100 µM (inactive)
GI50 (EKVX): > 100 µM (inactive)
GI50 (HCT-116): > 100 µM (inactive)
GI50 (HCT-15): > 100 µM
GI50 (HL-60): > 100 µM (inactive)
GI50 (HOP-62): > 100 µM (inactive)
GI50 (HOP-92): 54 µM (inactive)
GI50 (HT-29): > 100 µM (inactive)
GI50 (Hs-578T): > 100 µM (inactive)
GI50 (IGROV-1): > 100 µM (inactive)
GI50 (K562): > 100 µM (inactive)
GI50 (KM12): > 100 µM (inactive)
GI50 (LOX IMVI): > 100 µM (inactive)
GI50 (M14): > 100 µM (inactive)
GI50 (MCF7): > 100 µM (inactive)
GI50 (MDA-MB-231): > 100 µM (inactive)
GI50 (MDA-MB-435): > 100 µM (inactive)
GI50 (MDA-N): > 100 µM (inactive)
GI50 (MOLT-4): > 100 µM (inactive)
GI50 (Malme-3M): > 100 µM (inactive)
GI50 (NCI-H226): > 100 µM (inactive)
GI50 (NCI-H23): > 100 µM (inactive)
GI50 (NCI-H460): > 100 µM (inactive)
GI50 (NCI-H522): > 100 µM (inactive)
GI50 (NCI/ADR-RES): > 100 µM (inactive)
GI50 (OVCAR-3): > 100 µM (inactive)
GI50 (OVCAR-4): > 100 µM (inactive)
GI50 (OVCAR-5): > 100 µM (inactive)
GI50 (OVCAR-8): > 100 µM (inactive)
GI50 (PC-3): > 100 µM (inactive)
GI50 (RPMI-8226): > 100 µM (inactive)
GI50 (RXF 393): > 100 µM (inactive)
GI50 (SF-268): > 100 µM (inactive)
GI50 (SF-295): > 100 µM (inactive)
GI50 (SF-539): > 100 µM (inactive)
GI50 (SK-MEL-28): > 100 µM (inactive)
GI50 (SK-MEL-2): > 100 µM (inactive)
GI50 (SK-MEL-5): > 100 µM (inactive)
GI50 (SK-OV-3): > 100 µM (inactive)
GI50 (SN12C): > 100 µM (inactive)
GI50 (SNB-75): > 100 µM (inactive)
GI50 (SR): > 100 µM (inactive)
GI50 (SW-620): > 100 µM (inactive)
GI50 (T47D): > 100 µM (inactive)
GI50 (TK-10): > 100 µM (inactive)
GI50 (U-251): > 100 µM (inactive)
GI50 (UACC-257): > 100 µM (inactive)
GI50 (UACC-62): > 100 µM (inactive)
GI50 (UO-31): > 100 µM (inactive)
